The record followed here is patent US20230066946A1, “1,5-DIPHENYLPYRAZOLYL-3-OXYALKYL ACIDS AND 1-PHENYL-5-THIENYLPYRAZOLYL-3-OXYALKYL ACIDS AND THE USE THEREOF FOR CONTROL OF UNWANTED PLANT GROWTH” (Bayer Aktiengesellschaft, priority 2019, published 2023).

SMILES strings stand for the structures.

The test system of one experiment is CYPES. The experiment is described as follows: Pre-emergence herbicidal action against CYPES. Type of experiment: in vivo, Cyperus esculentus. The conditions noted are these: scored visually after about 3 weeks vs untreated controls, 100% = plants have died, 0% = like control plants. The source says: (§1) Seeds of mono- and dicotyledonous weed plants are placed in plastic pots in sandy loam soil (doubly sown with one species each of mono- or dicotyledonous weed plants per pot) and covered with soil. The compounds of the invention, formulated in the form of wettable powders (WP) or as emulsion concentrates (EC), are then applied onto the surface of the covering soil as aqueous suspension or emulsion with addition of 0.5% additive at a water application rate equivalent to 600 litres per hectare. After the treatment, the pots are placed in a greenhouse and kept under good growth conditions for the trial plants. After about 3 weeks, the effect of the preparations is scored visually in comparison with untreated controls as percentages. For example, 100% activity=the plants have died, 0% activity=like control plants. [table] Tables 4.1-4.15 below show the effects of selected compounds of the general formula (I) according to Tables 1 to 3 on various harmful plants at an application rate corresponding to 1280 or 320 g/ha, which have been obtained by the aforementioned experimental method.

The subject of experiment [1] is AMARE. As to the kind of experiment: Pre-emergence herbicidal action against AMARE. To be noted: scored visually after about 3 weeks vs untreated controls; for Pre-emergence action at 320 g/ha against AMARE in %: 100% = plants have died, 0% = like control plants; for Pre-emergence action against AMARE in %: 1280 g/ha. Format: in vivo, Amaranthus retroflexus. The essentials: (§2)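 Scoring is visual, in percent relative to untreated pots, roughly 3 weeks after soil-surface application. Rates were 1280 or 320 g/ha, delivered as WP or EC preparations with 0.5% additive in 600 L/ha water onto freshly sown, covered sandy loam.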

The test system of experiment [2] is MATIN. The experiment is described as follows: Pre-emergence herbicidal action against MATIN. The conditions noted are these: 1280 g/ha, scored visually after about 3 weeks vs untreated controls. Type of experiment: in vivo, Matricaria inodora. The essentials: as §2
In experiment [3] the test system is PHBPU. As to the kind of experiment: Pre-emergence herbicidal action against PHBPU. The conditions noted are these: 1280 g/ha, scored visually after about 3 weeks vs untreated controls. Type of experiment: in vivo, Pharbitis purpurea.
Excerpt: as §1

The subject of experiment [4] is STEME. As to the kind of experiment: Pre-emergence herbicidal action against STEME. Type of experiment: in vivo, Stellaria media. The conditions noted are these: 1280 g/ha, scored visually after about 3 weeks vs untreated controls. The essentials:
as §2

For the next experiment, the system named is VERPE. As to the kind of experiment: Pre-emergence herbicidal action against VERPE. Format: in vivo, Veronica persica. The conditions noted are these: 320 g/ha, scored visually after about 3 weeks vs untreated controls. The essentials: as §2
The next experiment deals with ECHCG. As to the kind of experiment: Post-emergence herbicidal action against ECHCG. Format: in vivo, Echinochloa crus-galli. The conditions noted are these: 1280 g/ha, post-emergence at one-leaf stage, rated visually after about 3 weeks vs untreated controls. The essentials: (§3)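 Visual scoring, where 100% = dead and 0% = like untreated plants, was done about 3 weeks after treatment. Dose was 1280 or 320 g/ha, delivered as aqueous WP/EC suspension or emulsion with 0.5% additive at 600 L/ha. Pot-grown weeds in sandy loam were treated post-emergence at one leaf, 2-3 weeks post-sowing.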

Experiment [5] relates to AMARE. As to the kind of experiment: Post-emergence herbicidal action against AMARE. Type of experiment: in vivo, Amaranthus retroflexus. To be noted: 1280 g/ha, visual rating about 3 weeks after treatment. The essentials:
as §3

The subject of experiment [6] is MATIN. As to the kind of experiment: Post-emergence herbicidal action against MATIN. Type of experiment: in vivo, Matricaria inodora. To be noted: visual rating about 3 weeks after treatment. The essentials: as §3
The test system of experiment [7] is PHBPU. As to the kind of experiment: Post-emergence herbicidal action against PHBPU. The conditions noted are these: 320 g/ha, visual rating about 3 weeks after treatment. Format: in vivo, Pharbitis purpurea. The essentials: as §3
The test system of experiment [8] is STEME. The experiment is described as follows: Post-emergence herbicidal action against STEME. Format: in vivo, Stellaria media. The conditions noted are these: visual rating about 3 weeks after treatment. The essentials: as §3
Experiment [9] relates to harmful plants. The experiment is described as follows: Pre-emergence herbicidal action, summary of Tables 4.1-4.15. Format: in vivo. To be noted: result in words. The essentials: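 Percent herbicidal action (100% = plants dead, 0% = like controls) was assessed visually about 3 weeks after treatment. Application rates of 1280 or 320 g/ha were applied to the covering soil of freshly sown sandy-loam pots, in 600 l/ha water with 0.5% additive, before emergence.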

The subject of experiment [10] is harmful plants. As to the kind of experiment: Post-emergence herbicidal action, summary of Tables 5.1-5.16. Type of experiment: in vivo. The conditions noted are these: result in words. As to the method:
Seeds of mono- and dicotyledonous weed plants are placed in plastic pots in sandy loam soil (twin sowing with one species each of mono- or dicotyledonous weed plants per pot), covered with soil and cultivated in a greenhouse under controlled growth conditions. 2 to 3 weeks after sowing, the test plants are treated at the one-leaf stage. The compounds of the invention, formulated in the form of wettable powders (WP) or as emulsion concentrates (EC), are applied to the green parts of the plants as aqueous suspension or emulsion with addition of 0.5% additive at a water application rate equivalent to 600 litres per hectare. After the test plants have been kept in the greenhouse under optimum growth conditions for about 3 weeks, the activity of the preparations is rated visually in comparison to untreated controls. For example, 100% activity=the plants have died, 0% activity=like control plants. Tables 5.1-5.16 below show the effects of selected compounds of the general formula (I) according to Tables 1 to 3 on various harmful plants at an application rate corresponding to 1280 or 320 g/ha, which have been obtained by the aforementioned experimental method. As the results from Tables 5.1-5.16 show, compounds of the invention have good herbicidal post-emergence efficacy against a broad spectrum of weed grasses and weeds. […] For example, compounds Nos. I-002, I-006, I-022, I-056 and I-072 applied by the post-emergence method have very good herbicidal action (80% to 100% herbicidal action) against harmful plants such as Alopecurus myosuroides, Amaranthus retroflexus, Matricaria inodora, Setaria viridis, Pharbitis purpurea and Stellaria media at an application rate of 1.28 kg of active substance or less per hectare.

In experiment [11] the test system is ALOMY. As to the kind of experiment: Pre-emergence herbicidal action against ALOMY. Type of experiment: in vivo, Alopecurus myosuroides. The conditions noted are these: scored visually after about 3 weeks vs untreated controls, 100% = plants have died, 0% = like control plants.
Excerpt: as §1

The subject of experiment [12] is SETVI. The experiment is described as follows: Pre-emergence herbicidal action against SETVI. Type of experiment: in vivo, Setaria viridis. The conditions noted are these: 1280 g/ha, scored visually after about 3 weeks vs untreated controls. The essentials:
as §2

The test system of the next experiment is POLCO. The experiment is described as follows: Pre-emergence herbicidal action against POLCO. The conditions noted are these: 320 g/ha, scored visually after about 3 weeks vs untreated controls. Format: in vivo, Polygonum convolvulus. The essentials: as §2
The next experiment concerns VIOTR. The experiment is described as follows: Pre-emergence herbicidal action against VIOTR. The conditions noted are these: 1280 g/ha, scored visually after about 3 weeks vs untreated controls. Type of experiment: in vivo, Viola tricolor. The essentials: as §2
Experiment [13] relates to ALOMY. The experiment is described as follows: Post-emergence herbicidal action against ALOMY. Type of experiment: in vivo, Alopecurus myosuroides. The conditions noted are these: 1280 g/ha, post-emergence at one-leaf stage, rated visually after about 3 weeks vs untreated controls. The essentials:
as §3

Experiment [14] has as its system SETVI. As to the kind of experiment: Post-emergence herbicidal action against SETVI. To be noted: 1280 g/ha, post-emergence at one-leaf stage, rated visually after about 3 weeks vs untreated controls. Type of experiment: in vivo, Setaria viridis. The essentials:
as §3

Consider `COC(=O)COc1nn(-c2cccc(F)c2)c(-c2cccc(F)c2)c1Cl` [I-003], for which, in the experiment on CYPES, the “Pre-emergence action at 1280 g/ha against CYPES in %” value is 100%. In addition, the “Pre-emergence action at 320 g/ha against AMARE in %” value with AMARE [1] is recorded as 100%. Moreover, the “Pre-emergence action against AMARE in %” value in the experiment on AMARE [1] was found to be 100%. Further, the “Pre-emergence action against MATIN in %” value in the experiment with MATIN [2] stood at 100%. Further, the “Pre-emergence action against PHBPU in %” value in the experiment with PHBPU [3] amounted to 80%. For the same molecule, in the experiment on STEME [4], the “Pre-emergence action against STEME in %” value was 100%. Also, in the experiment with VERPE, the “Pre-emergence action against VERPE in %” value is on record as 100%. In the experiment with ECHCG, the “Post-emergence action against ECHCG in %” value came out at 80%. The “Post-emergence action against AMARE in %” value with AMARE [5] is 80%. The “Post-emergence action against MATIN in %” value in the experiment with MATIN [6] (320 g/ha) and with MATIN [6] (1280 g/ha) was 80% in each case. Moreover, the “Post-emergence action against PHBPU in %” value with PHBPU [7] came to 80%. The “Post-emergence action against STEME in %” value in the experiment on STEME [8] (320 g/ha) and in the experiment on STEME [8] (1280 g/ha) was 80% in each case. Further, the “herbicidal efficacy against harmful plants in the case of pre-emergence treatment” value in the experiment with harmful plants [9] is listed as “good herbicidal efficacy”. Also, the “herbicidal efficacy against harmful plants when applied post-emergence” value with harmful plants [10] was “very good herbicidal efficacy”.

Turning to `CCOC(=O)COc1nn(-c2ccc(F)cc2)c(-c2ccccc2)c1Br` [I-072], the “Pre-emergence action at 1280 g/ha against ALOMY in %” value in the experiment with ALOMY [11] is given as 80%. In addition, in the experiment with SETVI [12], the “Pre-emergence action against SETVI in %” value was 80%. In the experiment on AMARE [1], the “Pre-emergence action at 320 g/ha against AMARE in %” value came out at 80% and the “Pre-emergence action against AMARE in %” value was 90%. For the same molecule, in the experiment with MATIN [2], the “Pre-emergence action against MATIN in %” value came to 80%. Also, the “Pre-emergence action against PHBPU in %” value in the experiment on PHBPU [3] is given as 90%. In addition, the “Pre-emergence action against POLCO in %” value with POLCO is 90%. In the experiment on STEME [4], the “Pre-emergence action against STEME in %” value was determined as 90%. Besides, the “Pre-emergence action against VIOTR in %” value in the experiment on VIOTR is listed as 80%. Besides, the “Post-emergence action against ALOMY in %” value in the experiment with ALOMY [13] worked out at 80%. Further, in the experiment with ECHCG, the “Post-emergence action against ECHCG in %” value is 80%. Besides, the “Post-emergence action against SETVI in %” value in the experiment on SETVI [14] was found to be 80%. Moreover, the “Post-emergence action against AMARE in %” value in the experiment on AMARE [5] came to 80%. Further, the “Post-emergence action against MATIN in %” value in the experiment on MATIN [6] (1280 g/ha) was determined as 80%. Also, the “Post-emergence action against STEME in %” value in the experiment with STEME [8] (1280 g/ha) is given as 80%. Further, the “herbicidal efficacy against harmful plants in the case of pre-emergence treatment” value in the experiment with harmful plants [9] is “good herbicidal efficacy”. Besides, in the experiment on harmful plants [10], the “herbicidal efficacy against harmful plants when applied post-emergence” value was “very good herbicidal efficacy”.
